The values below come from patent US8101638B2, “6-substituted nicotinamide derivatives as opioid receptor antagonists” (Eli Lilly and Company, priority 2003, dated 2012).

Holding throughout (type): biochemical
In assay [1] the target is delta opioid receptor (DOR) (Homo sapiens, UniProt P41143). Description: SPA-based GTP-γ-S binding assay, antagonist mode, delta opioid receptor. Conditions: antagonist assay against agonist DPDPE 30 nM; membranes; Kb by Cheng-Prusoff equation. How it is done: (§1) A scintillation proximity assay (SPA) based GTP-γ-S^35 assay format was developed based on previous opioid (Emmerson et al., J. Pharm Exp Ther 278, 1121, 1996; Horng et al., Society for Neuroscience Abstracts, 434.6, 2000) and muscarinic (DeLapp et al., JPET 289, 946, 1999) assay formats. Membranes were resuspended in 20 mM HEPES, 100 mM NaCl, 5 mM MgCl2, 1 mM DTT, and 1 mM EDTA. […] of GTP-γ-[35S], compound, membrane suspension (20 microgram/well), and wheat germ agglutinin coated SPA beads (1 mg/well) were added to clear bottom 96 well assay plates. GDP ([…]) was added to the membrane solution prior to addition to the assay plates. Plates were sealed and incubated for four hours at room temperature then placed in a refrigerator overnight to allow the beads to settle. Signal stability at 4° C. was determined to be >60 hours. Plates were warmed to room temperature and counted in a Wallac Microbeta scintillation counter. For antagonist assays, specific agonists were added at the following concentrations: (MOR) DAMGO 1 micromolar, (DOR) DPDPE 30 nM, (KOR) U69593 300 nM. Kb's were determined by Cheng-Prusoff equation (see Cheng and Prusoff, Biochem. Pharmacol. 22, 3099, 1973).
Sequence of delta opioid receptor (DOR) (P41143 whole entry): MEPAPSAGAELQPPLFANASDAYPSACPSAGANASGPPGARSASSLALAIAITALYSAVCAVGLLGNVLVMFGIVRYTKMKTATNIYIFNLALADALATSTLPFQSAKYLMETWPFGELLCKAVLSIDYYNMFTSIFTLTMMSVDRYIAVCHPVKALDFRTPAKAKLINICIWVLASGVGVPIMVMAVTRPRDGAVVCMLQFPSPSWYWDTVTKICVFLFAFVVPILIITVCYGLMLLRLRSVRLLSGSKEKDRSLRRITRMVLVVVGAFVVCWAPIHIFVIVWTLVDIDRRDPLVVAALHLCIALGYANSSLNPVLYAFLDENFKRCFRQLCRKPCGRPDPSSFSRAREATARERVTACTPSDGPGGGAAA

The target of assay [2] is kappa opioid receptor (KOR) (Homo sapiens, UniProt P41145). Description: SPA-based GTP-γ-S binding assay, antagonist mode, kappa opioid receptor. The following applies: antagonist assay against agonist U69593 300 nM; membranes; Kb by Cheng-Prusoff equation. How it is done: as §1
Sequence of kappa opioid receptor (KOR) (P41145 whole entry): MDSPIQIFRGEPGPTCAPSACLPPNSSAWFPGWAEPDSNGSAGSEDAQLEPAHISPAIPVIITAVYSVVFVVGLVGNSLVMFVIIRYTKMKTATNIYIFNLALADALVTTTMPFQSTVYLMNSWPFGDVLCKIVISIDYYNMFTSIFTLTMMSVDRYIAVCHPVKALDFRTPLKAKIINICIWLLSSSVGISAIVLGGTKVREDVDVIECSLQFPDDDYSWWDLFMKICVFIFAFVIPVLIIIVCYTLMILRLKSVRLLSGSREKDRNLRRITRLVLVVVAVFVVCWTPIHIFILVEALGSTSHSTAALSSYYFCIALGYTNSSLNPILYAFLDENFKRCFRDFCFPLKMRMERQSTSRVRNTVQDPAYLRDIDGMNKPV
In general terms: GTPγS is a poorly hydrolysed GTP analogue; its binding reports G protein activation.

The next assay deals with mu opioid receptor (MOR) (Homo sapiens, UniProt P35372). Description: SPA-based GTP-γ-S binding assay, antagonist mode, mu opioid receptor. Conditions: antagonist assay against agonist DAMGO 1 micromolar; membranes; Kb by Cheng-Prusoff equation. The method, then:
as §1

Sequence of mu opioid receptor (MOR) (P35372 whole entry): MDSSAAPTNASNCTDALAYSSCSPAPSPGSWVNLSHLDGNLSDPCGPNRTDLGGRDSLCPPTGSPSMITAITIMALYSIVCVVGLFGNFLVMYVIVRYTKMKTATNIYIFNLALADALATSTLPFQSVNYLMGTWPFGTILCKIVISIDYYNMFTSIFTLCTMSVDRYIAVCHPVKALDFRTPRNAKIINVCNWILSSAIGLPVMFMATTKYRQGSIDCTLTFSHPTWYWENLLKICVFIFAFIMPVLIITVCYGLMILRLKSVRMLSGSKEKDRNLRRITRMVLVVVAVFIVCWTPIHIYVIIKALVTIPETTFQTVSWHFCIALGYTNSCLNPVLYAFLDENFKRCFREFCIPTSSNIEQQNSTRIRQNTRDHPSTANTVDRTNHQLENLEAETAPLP

Take `CC(C)CCNCC1CCCc2c(Oc3ccc(C(N)=O)cn3)cccc21` (stereo not drawn) [Example 192, 6-{5-[(3-Methyl-butylamino)-methyl]-5,6,7,8-tetrahydro-naphthalen-1-yloxy}-nicotinamide]: the Kb – broadly, the equilibrium dissociation constant of an antagonist, usually derived from a functional assay – worked out at 9.4 nM in assay [1], 11.8 nM in assay [2] and 1.1 nM at mu opioid receptor (MOR).
Turning to `NC(=O)c1ccc(Oc2ccc3c(c2)CCC3NCCc2ccc(F)cc2)nc1` (stereo not drawn) [Example 90, 6-{1-[2-(4-Fluoro-phenyl)-ethylamino]-indan-5-yloxy}-nicotinamide], the antagonist dissociation constant (Kb) in assay [1] amounted to 14.6 nM; in assay [2], 9.2 nM; at mu opioid receptor (MOR), 0.4 nM.
As to `CC(C)CCN(C)C1CCc2cc(Oc3ccc(C(N)=O)cn3)ccc21` (stereo not drawn) [Example 20], the results for the Kb (in assay [1]; in assay [2]; on mu opioid receptor (MOR)) were 13.5 nM, 2.5 nM and 0.73 nM, respectively.
Regarding `NC(=O)c1ccc(Oc2cccc3c2CCCC3CNCCC2CCCCC2)nc1` (stereo not drawn) [Example 195, 6-{5-[(2-Cyclohexyl-ethylamino)-methyl]-5,6,7,8-tetrahydro-naphthalen-1-yloxy}-nicotinamide], the Kb in assay [1] was 7.9 nM; in assay [2] it was 76 nM; at mu opioid receptor (MOR), 0.5 nM.
The corresponding values for `CC(C)(C)CCNCC1CCCc2c(Oc3ccc(C(N)=O)cn3)cccc21` (stereo not drawn) [Example 202, 6-{5-[(3,3-Dimethyl-butylamino)-methyl]-5,6,7,8-tetrahydro-naphthalen-1-yloxy}-nicotinamide] are 4.09 nM, 5.79 nM and 0.65 nM.
